Experimental data from patent US12428427B2, “Methods and compositions for targeting PD-L1” (Aligos Therapeutics, Inc., priority 2021, dated 2025).

Experiments:
PDL1/PD1 = PDL1/PD1 (Homo sapiens, UniProt Q9NZQ7); test: PDL1/PD1 Binding Assay; settings: PDL1-6×His 0.3 nM, PD1-Fc-Avi-Biotin 2.5 nM, Acceptor/Donor beads; read-out: PD-1/PD-L1 PPI IC50
Description: Compounds to be tested were serially diluted in DMSO, and further diluted in assay buffer (25 mM Hepes pH 7.4, 150 mM NaCl, 0.005% Tween 20, BSA 0.01%). Diluted compounds were added to the wells with final concentration of DMSO at 1%. PDL1-6×His protein was added to the wells, mixed well with compound. The plates were incubated for 30 min at room temperature. PD1-Fc-Avi-Biotin protein was added to the wells. Final concentration of PDL1 and PD1 protein is 0.3 nM and 2.5 nM, respectively. After a binding time of 30 min at room temperature, Anti-6×His Acceptor beads (final concentration 20 ug/ml) were added to the wells, and the incubation continued for 1 h. Streptavidin Donor beads (final concentration 20 ug/mL) were added at reduced light. The plates were sealed with foil and incubated in the dark for additional 1 h or overnight before reading on an Envision reader. The IC50 values were determined by fitting the curves using a four-parameter equation in Graphpad Prism 8.

PD-1/PD-L1 interaction = biological target: T1, PD-1/PD-L1 interaction (Homo sapiens, UniProt Q9NZQ7); test: PD-1/PD-L1 NFAT Reporter Assay; type: cell-based; settings: co-culture of PD-L1 expressing CHO cells and PD-1 overexpressing Jurkat cells, 6 hrs, NFAT luciferase
T1 construct: expressed in transfected cells; Jurkat cells (PD-1 plus NFAT-luciferase)
T1 sequence (Q9NZQ7 19-290): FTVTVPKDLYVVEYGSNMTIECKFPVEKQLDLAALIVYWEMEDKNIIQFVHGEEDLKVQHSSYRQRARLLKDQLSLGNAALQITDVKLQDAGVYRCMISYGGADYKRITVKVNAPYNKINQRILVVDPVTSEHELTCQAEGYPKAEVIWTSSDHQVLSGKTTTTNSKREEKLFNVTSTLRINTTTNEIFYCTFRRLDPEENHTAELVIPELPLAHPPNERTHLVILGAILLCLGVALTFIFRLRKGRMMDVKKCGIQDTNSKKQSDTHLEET
Description: Blocking the PD-1/PD-L1 interaction will release the inhibitory signal and results in TCR signaling and NFAT-mediated luciferase activity.
CHO cells expressing surface-bound anti-CD3 antibodies and PD-L1 were first seeded overnight and treated with the compounds. Jurkat cells overexpressing PD-1 and a luciferase construct under NFAT promoter were then immediately seeded on the monolayer of CHO cells. The co-culture was then incubated for 6 hrs at 37° C. Luciferase activity was assessed by adding the ONE-Glo reagent and measuring luminescence with a plate reader. EC50 values were determined from the fit of the dose-response curves.

PDL1/PD1, sequence (Q9NZQ7 19-238 limits assumed): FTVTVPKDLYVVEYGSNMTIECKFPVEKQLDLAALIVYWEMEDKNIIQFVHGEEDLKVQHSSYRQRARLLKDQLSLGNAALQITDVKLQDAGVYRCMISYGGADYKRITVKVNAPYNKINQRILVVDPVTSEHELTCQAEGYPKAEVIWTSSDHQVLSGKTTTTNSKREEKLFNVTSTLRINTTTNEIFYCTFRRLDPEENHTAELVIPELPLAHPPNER

**Q.** How did the IC50 (PDL1/PD1) turn out when `COc1nc(-c2cccc(-c3cccc(NC(=O)c4ccnn(C)c4=O)c3Cl)c2Cl)cc(C)c1CN1CC(C(=O)O)C1` [Compound C-88] was run?
**A.** The IC50 was ≤ 0.01 µM.

**Q.** What about the EC50 (PD-1/PD-L1 interaction) of the same compound?
**A.** The EC50 was 0.01 to 0.1 µM.

**Q.** How did the IC50 (PDL1/PD1) turn out when `CCOC(=O)C1CN(Cc2c(C)cc(-c3cccc(-c4cccc(NC(=O)c5ccnn(C)c5=O)c4Cl)c3Cl)nc2OC)C1` [Compound C-89] was run?
**A.** The IC50 was ≤ 0.01 µM.

**Q.** What about the EC50 (PD-1/PD-L1 interaction) of the same compound?
**A.** The EC50 was 0.01 to 0.1 µM.

**Q.** How did the IC50 (PDL1/PD1) turn out when `CCOC(=O)C1CN(Cc2c(C)cc(-c3cccc(-c4cccc(NC(=O)c5ccnn(C)c5=O)c4C)c3Cl)nc2OC)C1` [Compound C-90] was run?
**A.** The IC50 was ≤ 0.01 µM.

**Q.** What about the EC50 (PD-1/PD-L1 interaction) of the same compound?
**A.** Its EC50 is 0.01 to 0.1 µM.

**Q.** Which IC50 (PDL1/PD1) does the source give for `COc1nc(-c2cccc(-c3cccc(NC(=O)c4ccnn(C)c4=O)c3C)c2Cl)cc(C)c1CN1CC(C(=O)O)C1` [Compound C-91] here?
**A.** Its IC50 is ≤ 0.01 µM.

**Q.** And the EC50 (PD-1/PD-L1 interaction)?
**A.** The EC50 was 0.01 to 0.1 µM.

**Q.** Which results are given for `COc1cc(C(=O)Nc2cccc(-c3cccc(-c4ccc(CN[C@@H]5CCOC[C@@H]5O)c(OC)n4)c3Cl)c2Cl)c(=O)n(C)n1` [Compound C-92]?
**A.** IC50 (PDL1/PD1): ≤ 0.01 µM; EC50 (PD-1/PD-L1 interaction): 0.01 to 0.1 µM

**Q.** Which IC50 (PDL1/PD1) does the source give for `CCOC(=O)N(Cc1ncc(-c2cccc(-c3cccc(NC(=O)c4ccnn(C)c4=O)c3C)c2Cl)nc1OC)C[C@@H]1CCC(=O)N1` [Compound D-2] here?
**A.** Its IC50 is 0.01 to 0.1 µM.

**Q.** What about the EC50 (PD-1/PD-L1 interaction) of the same compound?
**A.** The EC50 was > 5 µM.

**Q.** With `COc1nc(-c2cccc(-c3cccc(NC(=O)c4ccnn(C)c4=O)c3Cl)c2Cl)ccc1CN1C(=O)O[C@H]2COCC[C@H]21` [Compound E-1] as the compound, how does the IC50 (PDL1/PD1) read?
**A.** The IC50 was ≤ 0.01 µM.

**Q.** What about the EC50 (PD-1/PD-L1 interaction) of the same compound?
**A.** Its EC50 is > 10 µM.
